Experimental findings from patent publication US20080214646A1 (priority 2005, published 2008) are described below.

Several values for one entry are separate records, joined by “and”; a condition that tells them apart may be missing. Equal values may be shown once. Marks after values point to notes of the source that are not given here.

Data set [1] relates to carrageenan-induced rat paw edema. Nature of the data set: Carrageenan-induced rat paw edema anti-inflammatory assay. Particulars: for ED50: 3 h after oral administration, rat, read-out: AI activity ID50. Type of data set: in vivo. Background: The carrageenan paw model is a standard test of acute inflammation.
Data set [2] addresses T1, ovine COX-2 (Ovis aries, UniProt P79208).
T1 construct: purchased Cayman Chemical 560101
T1 sequence (P79208 17-603): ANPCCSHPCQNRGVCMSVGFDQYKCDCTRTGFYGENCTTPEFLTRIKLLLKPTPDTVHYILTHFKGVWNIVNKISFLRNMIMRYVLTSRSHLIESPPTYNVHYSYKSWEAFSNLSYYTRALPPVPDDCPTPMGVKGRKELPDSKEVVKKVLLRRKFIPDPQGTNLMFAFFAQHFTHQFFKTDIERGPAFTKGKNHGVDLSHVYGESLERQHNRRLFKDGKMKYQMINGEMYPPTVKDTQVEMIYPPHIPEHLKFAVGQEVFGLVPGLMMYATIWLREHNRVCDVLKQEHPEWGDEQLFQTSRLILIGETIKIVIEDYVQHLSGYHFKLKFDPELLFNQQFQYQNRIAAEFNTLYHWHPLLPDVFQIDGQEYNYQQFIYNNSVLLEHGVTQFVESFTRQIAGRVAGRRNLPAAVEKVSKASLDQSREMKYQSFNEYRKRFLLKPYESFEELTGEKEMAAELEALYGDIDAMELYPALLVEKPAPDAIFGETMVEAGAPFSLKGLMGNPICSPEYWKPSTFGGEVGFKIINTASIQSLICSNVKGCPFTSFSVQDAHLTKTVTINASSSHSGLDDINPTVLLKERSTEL
Nature of the data set: In vitro ovine COX-2 enzyme inhibition (EIA kit). To be noted: for IC50: ovine COX-2, mean of two determinations. Type of data set: biochemical.

The nature of data set [3]: Nitric oxide release in phosphate buffer (Griess reaction). Type of data set: physicochemical. To be noted: PBS pH 7.4, 37° C., 1.5 h; relative to theoretical maximum 2 mol NO/mol.
Description: (§1) Nitric Oxide Release Assay: In vitro nitric oxide release, upon incubation with phosphate buffer, pig liver esterase, or guinea pig serum, was determined by quantification of nitrite produced by the reaction of nitric oxide with oxygen and water using the Griess reaction.
In data set [4] the target is T2, ovine COX-1 (Ovis aries, UniProt P05979).
T2 construct: purchased Cayman Chemical 560101
T2 sequence (P05979 25-600): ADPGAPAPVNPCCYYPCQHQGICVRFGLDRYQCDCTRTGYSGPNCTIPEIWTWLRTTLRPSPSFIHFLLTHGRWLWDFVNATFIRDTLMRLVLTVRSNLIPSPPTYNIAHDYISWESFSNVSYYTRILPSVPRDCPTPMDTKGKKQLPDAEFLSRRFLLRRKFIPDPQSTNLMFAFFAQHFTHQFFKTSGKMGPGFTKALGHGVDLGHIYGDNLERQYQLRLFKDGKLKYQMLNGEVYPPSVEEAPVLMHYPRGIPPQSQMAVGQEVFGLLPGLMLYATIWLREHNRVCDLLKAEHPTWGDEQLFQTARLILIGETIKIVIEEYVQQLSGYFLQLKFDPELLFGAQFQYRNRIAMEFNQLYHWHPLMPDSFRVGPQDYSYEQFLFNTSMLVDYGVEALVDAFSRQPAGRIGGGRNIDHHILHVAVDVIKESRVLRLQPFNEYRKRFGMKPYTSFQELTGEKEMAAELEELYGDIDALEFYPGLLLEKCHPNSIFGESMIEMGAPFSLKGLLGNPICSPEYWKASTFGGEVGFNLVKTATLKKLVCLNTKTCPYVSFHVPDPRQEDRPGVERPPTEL
Put plainly: In vitro ovine COX-1 enzyme inhibition (EIA kit). Type of data set: biochemical. To be noted: mean of two determinations.

Data set [5] concerns gastric ulcers. Put plainly: Acute ulcerogenesis assay (gastric ulcer index). Type of data set: in vivo, rats. Particulars: oral, 6 h, rat. How it is done: All drugs were suspended and administered in 1.7 mL of a 1% methylcellulose solution. Control rats received oral administration of vehicle (1.7 mL of 1.0% methylcellulose solution). Food, but not water, was removed 24 h before administration of test compounds. Six hours after oral administration of the drug, rats were euthanized in a CO2 chamber and their stomachs were removed, cut out along the greater curvature of the stomach, gently rinsed with water and placed on ice. The number and the length of ulcers were determined using a magnifier lens. […] The average overall length (in mm) of individual ulcers in each tissue was designated as the “ulcer index”. Each experimental group consisted of four rats.

In data set [6] the test system is pig liver esterase. Particulars: 1.5 h, pH 7.4.
Description: as §1
The mark [7] stands for this setting: equivalent amount to 250 mg of aspirin/kg.
Setting [8] is: equivalent amount to 250 mg of ibuprofen/kg.

Consider `CC(C)Cc1ccc(C(C)C(=O)O)cc1` (racemic) [Ibuprofen, ibuprofen, reference compound], for which the ED50 in data set [1] was 67.4 mg/kg.
Consider `CC(=O)Oc1ccccc1C(=O)O` [Aspirin, Acetyl salicylic acid, reference compound], for which the “COX-2 S.I. (COX-1 IC50/COX-2 IC50)” value in data set [2] (selectivity index) came to 0.14. In addition, the ED50 in data set [1] was determined as 129 mg/kg.
On to `CN(C)[N+]([O-])=N[O-].[Na+]` [Compound 7, O^2-Sodium 1-(N,N-dimethylamino)diazen-1-ium-1,2-diolate, reference compound], for which the “% of Nitric oxide released, PBS (pH 7.4)” value in data set [3] turned out to be 95.2 ± 0.1%.
Usually IC50 stands for the midpoint of a concentration-inhibition curve. High values mean weaker potency, low ones greater potency. Regarding `CC(=O)Oc1ccccc1C(=O)OCON=[N+]([O-])N1CCCC1` [Compound 11, O^2(Acetylsalicyloyloxymethyl)-1-(pyrrolidin-1-yl)diazen-1-ium-1,2-diolate], the IC50 in data set [4] and in data set [2] was greater than 100 µM in each case. Besides, the ED50 in data set [1] is 182 mg/kg. Moreover, the “% of Nitric oxide released, PBS (pH 7.4)” value in data set [3] turned out to be 14.8 ± 0.1%. The Ulcer index in data set [5] (setting [7]) is 0 mm and 0^d mm. Also, the “% of Nitric oxide released, PLE” value in data set [6] worked out at 18.5 ± 0.1%.
As to `CC(=O)Oc1ccccc1C(=O)OCON=[N+]([O-])N(C)C` [Compound 12, O^2(Acetylsalicyloyloxymethyl)-1-(N,N-dimethylamino)diazen-1-ium-1,2-diolate], the IC50 in data set [4] and in data set [2] was greater than 100 µM each time. In data set [1], the ED50 was determined as 151 mg/kg. In addition, the “% of Nitric oxide released, PBS (pH 7.4)” value in data set [3] came to 15.4 ± 0.1%. Also, the Ulcer index in data set [5] (setting [7]) was 0 mm and 0^d mm. In addition, the “% of Nitric oxide released, PLE” value in data set [6] came to 19.1 ± 0.1%.
Take `CC(C)Cc1ccc(C(C)C(=O)OCON=[N+]([O-])N2CCCC2)cc1` (stereo not drawn) [Compound 13, O^2-[2-(4-(Isobutyl)phenyl)propanoyloxymethyl]-1-(pyrrolidin-1-yl)diazen-1-ium-1,2-diolate]: the IC50 in data set [4] and in data set [2] was greater than 100 µM each time. Also, the ED50 in data set [1] stood at 66.8 mg/kg. Also, the “% of Nitric oxide released, PBS (pH 7.4)” value in data set [3] is reported as 14.9 ± 0.1%. Besides, the Ulcer index in data set [5] (setting [8]) is 0 mm and 0^e mm. For the same molecule, the “% of Nitric oxide released, PLE” value in data set [6] is recorded as 16.3 ± 0.1%.
Take `CC(C)Cc1ccc(C(C)C(=O)OCON=[N+]([O-])N(C)C)cc1` (stereo not drawn) [Compound 14, O^2-[2-(4-(Isobutyl)phenyl)propanoyloxymethyl]-1-(N,N-dimethylamino)diazen-1-ium-1,2-diolate]: the IC50 in data set [4] and in data set [2] was greater than 100 µM each time. The ED50 in data set [1] was 62.3 mg/kg. Besides, the “% of Nitric oxide released, PBS (pH 7.4)” value in data set [3] came to 16.1 ± 0.1%. Further, the Ulcer index in data set [5] (setting [8]) is 0 mm and 0^e mm. In data set [6], the “% of Nitric oxide released, PLE” value stood at 17.3 ± 0.1%.
As for `COc1ccc2c(c1)c(CC(=O)OCON=[N+]([O-])N1CCCC1)c(C)n2C(=O)c1ccc(Cl)cc1` [Compound 15, O^2-[2-(1-(4-Chlorobenzoyl)-5-methoxy-2-methyl-1H-indol-3-yl)acetoxymethyl]-1-(pyrrolidin-1-yl)diazen-1-ium-1,2-diolate], the IC50 in data set [4] and in data set [2] was greater than 100 µM each time. Moreover, the ED50 in data set [1] turned out to be 10.7 mg/kg. Besides, the “fold less potent relative to the parent drug (ID50)” value in data set [1] (carrageenan-induced rat paw edema, oral) is on record as “about 2.5 fold”. Further, the “% of Nitric oxide released, PBS (pH 7.4)” value in data set [3] is 15.1 ± 0.1%. The Ulcer index in data set [5] (equivalent amount to 30 mg of indomethacin/kg) is 0.7 ± 0.11^f mm. Moreover, in data set [6], the “% of Nitric oxide released, PLE” value is given as 16.3 ± 0.1%.
Consider `COc1ccc2c(c1)c(CC(=O)OCON=[N+]([O-])N(C)C)c(C)n2C(=O)c1ccc(Cl)cc1` [Compound 16, O^2-[2-(1-(4-Chlorobenzoyl)-5-methoxy-2-methyl-1H-indol-3-yl)acetoxymethyl]-1-(dimethylamino)diazen-1-ium-1,2-diolate], for which the IC50 in data set [4] and in data set [2] was greater than 100 µM in each case. For the same molecule, in data set [1], the ED50 was found to be 5.9 mg/kg. The “% of Nitric oxide released, PBS (pH 7.4)” value in data set [3] is given as 14.3 ± 0.1%. Also, the “% of Nitric oxide released, PLE” value in data set [6] was determined as 16.9 ± 0.1%.
`COc1ccc2c(c1)c(CC(=O)O)c(C)n2C(=O)c1ccc(Cl)cc1` [Indomethacin, indomethacin, reference compound]: in data set [1], the ED50 worked out at 4.2 mg/kg.
For `[Na+].[O-]N=[N+]([O-])N1CCCC1` [O^2-sodium 1-(pyrrolidin-1-yl)diazen-1-ium-1,2-diolate, reference compound], the “% of Nitric oxide released, PBS (pH 7.4)” value in data set [3] was 94.0 ± 0.1%.
